Earlier results as cited in patent US4138582A, “Cycloalkenyl analogues of prostaglandin A” (Miles Laboratories, Inc., priority 1977, dated 1979).
Entries after “also recorded” stand apart in the source; their conditions may differ. Where two headings read alike, the source gives them in different places.

Assays:
[1] = test system: female reproductive system; conditions: fertility, labor, abortion, menstruation
gastric secretion [2] = conditions: dogs
growth hormone = conditions: rats
human platelets = conditions: result in words
blood platelets = conditions: in vitro
gastric secretion [3] = conditions: man

Compound	effects in the female reproductive system [1]	inhibition of gastric secretion (gastric secretion [2])	growth hormone release / synthesis (growth hormone)	inhibition of platelet aggregation by natural prostaglandin (human platelets)	inhibition of thrombogenesis (blood platelets)	inhibition of gastric secretion (gastric secretion [3])
CCCCC[C@H](O)/C=C/[C@@H]1[C@@H](C/C=C\CCCC(=O)O)[C@@H](O)C[C@H]1O [PGF2α]	has centragestational effects; also recorded: appears to be involved in the mechanism of menstruation; also recorded: induces spontaneous abortions in early pregnancy					
CCCCC[C@H](O)/C=C/[C@H]1[C@H](O)CC(=O)[C@@H]1C/C=C\CCCC(=O)O [PGE2]	exerts potent oxytocic effects in inducing labor	inhibit gastric secretion	increase release of growth hormone			
CCCCC[C@H](O)/C=C/[C@H]1[C@H](O)CC(=O)[C@@H]1CCCCCCC(=O)O [PGE1]		inhibit gastric secretion	increase release of growth hormone	displays similar activity	inhibits thrombogenesis in vitro	
CCCCC[C@H](O)/C=C/[C@H]1C=CC(=O)[C@@H]1CCCCCCC(=O)O [PGA1]		inhibit gastric secretion	increased synthesis of that hormone			exhibits similar activity in man
